Read-outs that look alike come from different tables or passages of the source.
Key:
MRSA [1] = experiment: Fluorescence microscopy, DAPI and PI; assay type: cell-based, Staphylococcus aureus; conditions: 6 μg/mL, 2 h
Procedure: Experiments of fluorescent microscopy is also a broadly used method to determine the integrity of bacteria membrane. Propidium iodide (PI) and 4′,6-diamidino-2-henylindole (DAPI) are commercially available dyes that stain dead or injured cells with compromised membrane and all cells irrespective of their viability, respectively. The efficacy of compound 2 to interrupt the bacterial membrane was evaluated by these two dyes.
Fluorescent dyes propidium iodide (PI) and 4′,6′-diamidino-2-phenylindole dihydrochloride (DAPI) can be used to distinguish the viable cell from the dead cells. After obtaining the mid-logarithmic phase bacteria solution as above, the bacteria solution was diluted 100 times and mixed with compound 2 at the concentration of 6 μg/mL. Then the mixture was incubated 2 h and centrifuged at 1,690 g (3,000 rpm) for 15 min at 4°C to harvest the cells. After washing with PBS for 3 times, PI (5 μg/mL) and DAPI (10 μg/mL) was used to dye cells 20 min respectively. Controls were carried out without compounds. The bacterial cells were then visualized and analyzed by employing the LEICA DM 2000 optical microscope with an oil-immersion objective (40 ×). The experiment was repeated three times with duplicates each time.

MRSA [2] = experiment: TEM study; assay type: cell-based, Staphylococcus aureus; conditions: MRSA 10^6 CFU/mL, 6 μg/mL, 2 h
Procedure: Transmission electron microscopy (TEM) is a straightforward method to visualize the interruptive effect of compounds on the membrane of bacteria. Mid log phase MRSA without the treatment of compound 2 had intact membrane (Figure 5A).
After being incubated to mid log phase, MRSA(10^6 CFU/mL) was mixed with 6 μg/mL compound 2 for 2 h. Then the bacteria cells were collected and washed with PBS and DI water. Following that, bacteria was resuspended in deionized water. Control bacterial samples were obtained without adding drugs. Above samples were applied to TEM grids by 5 μL bacteria solution, and the grids were allowed to dry in vacuum oven at the temperature of 45°C for 45 seconds. After being dried, TEM images were obtained on a FEI Morgagni 268D TEM with an Olympus MegaView III camera at 60 kV on the microscope. The microscope used AnalySiS software to run the camera.

MRSA [3] = experiment: Membrane depolarization study, DiSC3(5); assay type: cell-based, Staphylococcus aureus; conditions: MRSA 10^6 CFU/mL, 1 μM DiSC3(5), compound added after 30 min, ex 622 nm / em 670 nm
Text: HDPs are known to act on the bacterial membrane. As the mimics of HDPs, compounds 1–14 were also expected to kill bacteria through disintegrating the bacterial cell membrane. To this end, 3, 3′- Dipropylthiadicarbocyanine iodide [DiSC3(5)] was used as a fluorogenic probe to detect and measure changes in transmembrane potential. Briefly, fluorescence intensity is very weak when it accumulates on hyperpolarized membranes due to their self-quenching (Niu et al., [2018]). […] This method was used to initially determine the bacterial membrane permeability caused by the compound 2.
Mid log phase MRSA bacteria solution was obtained as above. Then, cells were collected and washed with 5 mM HEPES and 5 mM glucose respectively. 5 mM HEPES:5 mM glucose:100 mM KCl = 1:1:1 was used to resuspended bacteria cells (10^6 CFU/mL). Following that, 200 μL of bacterial suspension and 1 μM DiSC3(5) were included in a 96-well plate, and the fluorescence of the suspension was monitored at room temperature for 30 min at excitation wavelength of 622 nm and emission wavelength of 670 nm. After 30 min, compound 2 was added to the wells and the increased potential was monitored. The experiment was repeated three times with duplicates each time.

MRSA [4] = experiment: Time-kill kinetics; assay type: cell-based, Staphylococcus aureus
Procedure: Time-kill kinetic study of compound 2 were investigated. After being incubated from one colony in 4 mL TSB medium overnight at 37 °C while shaking, MRSA was diluted 2,500 times to another fresh 4 mL TSB solution and grew for 6~8 h to mid-logarithmic phase. Suspension [10^6 colony-forming units per milliliter (CFU/mL) according to the read of OD value] was made and then incubated with different concentration of 2 at 37°C for 10 min, 30 min, 60 min, 120 min respectively. The MRSA and drug mixture were diluted 10^2-fold and spread on the TSB agar plates. These plates were incubated at 37°C overnight. The numbers of colonies on each plate were transferred to lg[CFU/mL] and plotted against the incubation time. The experiment was repeated three times with duplicates each time.

MRSA [5] = experiment: Drug resistance study, 20 passages; assay type: cell-based, Staphylococcus aureus
Procedure: Drug resistance has already been recognized as one of the fastest growing threats all over the world. […] The MIC of compound 2 was determined daily, and then the bacteria suspension with half of the MIC was diluted to 10^6 CFU/mL and incubated with compound to test its activity until 20 passages had been reached.
The experiment was carried out by following our previously reported protocol (Su et al., [2017]; Niu et al., [2018]). The study was conducted for 20 passages.

[6] = tested on: methicillin-resistant S. aureus (MRSA, ATCC 33591); assay type: cell-based, Staphylococcus aureus; conditions: lowest concentration that completely inhibits growth, repeated three times
Procedure: (§1) Having obtained all compounds, their antibacterial efficacy was subsequently evaluated by measuring the minimum inhibitory concentration (MIC). Three significant resistant bacteria, including methicillin-resistant Staphylococcus aureus (MRSA) (ATCC 33591), Staphylococcus epidermidis (MRSE) (RP62A), and vancomycin-resistant E. faecalis (VRE) (ATCC 700802), were chosen for our studies. Meanwhile, hemolytic activity (HC50) was also measured to assess the selectivity of these compounds toward bacteria and blood cells. […] Importantly, HC50 of almost all compounds are equal or more than 250 μg/mL. […] This is consistent with our previous findings that significant hydrophobicity, particularly two long alkyl tails, could form hydrophobic clusters that prevent the formation of amphipathic structures necessary for antimicrobial activity (Li et al., [2014b]; Singh et al., [2018]). […] MICs of 10–14 unveiled that proper bulky hydrophobic groups were beneficial in the design of bactericide. These five compounds have the same (3r,5r,7r)-1-methyladamantane side chain but different tails, including C9, as well as C11 alkyl chain, ethylbenzene, and (3r,5r,7r)-1-methyladamantane. Among them, 10, which had no tail, was the best toward MRSA and MRSE, with the MICs of 5 μg/mL and 2 μg/mL respectively. […] Compounds 7 and 8 also shared a similar trend. It appears that compounds with bulky groups have better activity, due to the lager molecular volume or shorter molecular length of these bulky groups. Therefore, the selection of proper hydrophobic bulky groups when designing HDP-mimicking agents is considerably crucial (Wu et al., [2012]; Teng et al., [2016a]).
(§2) The antimicrobial assay of the compounds was conducted on the following three bacteria strains: methicillin-resistant S.aureus (MRSA, ATCC 33591), methicillin-resistant S. epidermidis (MRSE, RP62A), and vancomycin-resistant E. faecalis (VRE, ATCC 700802). The procedures were followed as reported previously. […] All measurements were repeated at least three times with duplicates each time.

[7] = tested on: vancomycin-resistant E. faecalis (VRE, ATCC 700802); assay type: cell-based; conditions: lowest concentration that completely inhibits growth, repeated three times
Procedure: as §1, §2

[8] = tested on: methicillin-resistant S. epidermidis (MRSE, RP62A); assay type: cell-based, Staphylococcus epidermidis; conditions: lowest concentration that completely inhibits growth, repeated three times
Procedure: as §1, §2

[9] = tested on: red blood cell (RBC) of mice; experiment: Hemolysis study (HC50); assay type: cell-based
Procedure: Fresh red blood cell (RBC) of mice was collected by centrifuge with the speed of 500 g for 10 mins until the supernatant is clear. Then, the RBC was diluted with PBS for 20-fold. After adding 50 μL PBS in each vial on 96 plates, 1 mg/mL compounds were serial diluted until reaching the lowest concentration 1.9 μg/mL. Diluted RBC was added into each vial and incubated at 37°C for 1 h. Then, plates were centrifuged at 2,301 g (3,500 rpm) for 10 mins. 30 uL supernatant in each vial was added into 100 μL PBS and read Biotek Synergy HT plate reader at 540 nm. The hemolytic activity was calculated by the formula % hemolysis = (Abssample-AbsPBS) / (AbsTriton-AbsPBS) × 100%. 1% Triton X-100 were used as the positive control and 1 × PBS buffer was used as the negative control.

[10] = mouse RBC in PBS, 37°C, 1 h, absorbance 540 nm, 1% Triton X-100 positive control

Compound: CCCCCCCCCC(=O)N(CC(=O)Nc1ccc(NC(=O)CN(C[C@@H](N)CCCCN)C(=O)CCCCCCCCC)cc1)C[C@@H](N)CCCCN [Compound 2, N,N'-((1,4-phenylenebis(azanediyl))bis(2-oxoethane-2,1-diyl))bis(N-(2,6-diaminohexyl)decanamide)]
- DAPI / PI staining of treated MRSA (MRSA [1]): fluorescence could be detected in both channels
- TEM observation of treated MRSA (MRSA [2]): large amount of cell debris can be detected
- DiSC3(5) fluorescence intensity after adding compound (MRSA [3]): fluorescence intensity increased dramatically
- Time-kill result at 6 μg/mL (MRSA [4]; MRSA 10^6 CFU/mL, 6 μg/mL, 37°C, up to 120 min): still colonies after 120 mins
- Time in which all bacteria were eradicated (MRSA [4]; MRSA 10^6 CFU/mL, 12 μg/mL, 37°C): ≤ 120 min
- Time in which all bacteria were eradicated (MRSA [4]; MRSA 10^6 CFU/mL, 24 μg/mL, 37°C): ≤ 120 min
- Time to eradicate MRSA (MRSA [4]; abstract statement, concentration not given): ≤ 2 h
- Change of MIC values after 20 passages (MRSA [5]; 20 passages at half of the MIC): almost unchanged

Compound: CCCCCCCCCCCCCC(=O)N(CC(=O)Nc1ccc(NC(=O)CN(C[C@@H](N)CCCCN)C(=O)CCCCCCCCCCCCC)cc1)C[C@@H](N)CCCCN [Compound 4, N,N'-((1,4-phenylenebis(azanediyl))bis(2-oxoethane-2,1-diyl))bis(N-(2,6-diaminohexyl)tetradecanamide)]
- MIC MRSA [6]: >25 µg/mL
- MIC VRE [7]: >25 µg/mL
- MIC MRSE [8]: >25 µg/mL
- Hemolysis (HC50) [9, 10]: >250 µg/mL

Compound: CCCCCCCCCCCCCCCC(=O)N(CC(=O)Nc1ccc(NC(=O)CN(C[C@@H](N)CCCCN)C(=O)CCCCCCCCCCCCCCC)cc1)C[C@@H](N)CCCCN [Compound 5, N,N'-((1,4-phenylenebis(azanediyl))bis(2-oxoethane-2,1-diyl))bis(N-(2,6-diaminohexyl)palmitamide)]
- MIC MRSA [6]: >25 µg/mL
- MIC VRE [7]: >25 µg/mL
- MIC MRSE [8]: >25 µg/mL
- Hemolysis (HC50) [9, 10]: >250 µg/mL

Compound: CCCCCCCCCC(=O)N[C@@H](CCCCN)CN(CC(=O)Nc1ccc(NC(=O)CN(C[C@H](CCCCN)NC(=O)CCCCCCCCC)C(=O)CC23CC4CC(CC(C4)C2)C3)cc1)C(=O)CC12CC3CC(CC(C3)C1)C2 [Compound 11, N,N'-((((1,4-phenylenebis(azanediyl))bis(2-oxoethane-2,1-diyl))bis ((2-((3r,5r,7r)-adamantan-1-yl)acetyl)azanediyl))bis(6-aminohexane-1,2-diyl))bis(decanamide)]
- MIC MRSA [6]: >25 µg/mL
- MIC VRE [7]: >25 µg/mL
- MIC MRSE [8]: >25 µg/mL
- Hemolysis (HC50) [9, 10]: >250 µg/mL

Compound: CCn1cc(C(=O)O)c(=O)c2cc(F)c(N3CCNCC3)cc21 [norfloxacin, reference compound]
- Increase of MIC after 20 passages (MRSA [5]; 20 passages): 10 fold

Compound: N-(2-(2-((1s,3s)-adamantan-1-yl)acetamido)-6-aminohexyl)-N-(2-((4-(2-(N-(2-(2-((3r,5r,7r)-adamantan-1-yl)acetamido)-6-aminohexyl) decanamido) acetamido) phenyl) amin)−2-oxoethyl)decanamide [Compound 7]
- MIC MRSA [6]: 10 µg/mL
- MIC VRE [7]: 20 µg/mL
- MIC MRSE [8]: 2 µg/mL
- Hemolysis (HC50) [9]: 250 µg/mL
